In US8133898B2, “Renin inhibitors” (Takeda Pharmaceutical Company Limited, priority 2008, dated 2012):

Assays:
[1] = target: T1, Recombinant human renin (Homo sapiens, UniProt P00797); test: in vitro enzymatic activity of renin inhibitors (fluorescence); assay type: biochemical; details: fluorogenic peptide substrate
T1 construct: with trypsin, and isolate the active form (residues 67-406); made in house; host or cells: FreeStyle 293-F cells (transient expression of pcDNA3.1(+)/hREN)
T1 sequence (P00797 67-406): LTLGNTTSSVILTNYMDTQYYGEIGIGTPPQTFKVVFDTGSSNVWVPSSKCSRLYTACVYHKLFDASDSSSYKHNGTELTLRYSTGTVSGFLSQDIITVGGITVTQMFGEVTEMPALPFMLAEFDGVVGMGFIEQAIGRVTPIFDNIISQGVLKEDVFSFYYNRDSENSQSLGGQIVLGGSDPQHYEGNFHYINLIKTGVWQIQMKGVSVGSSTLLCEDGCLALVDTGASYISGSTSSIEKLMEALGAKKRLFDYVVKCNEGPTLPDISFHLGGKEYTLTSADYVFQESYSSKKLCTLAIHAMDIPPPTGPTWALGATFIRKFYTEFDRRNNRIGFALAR
Source text: Test compounds in varying concentrations may be reacted with recombinant human renin in the presence of substrate, e.g., QXL520-γ-Abu-Ile-His-Pro-Phe-His-Leu-Val-Ile-His-Thr-Lys (HiLyteFluo488)-Arg-OH (Anaspec, San Jose, Calif.). The reaction can be followed kinetically using fluorescence (excitation λ=485 nm; emission λ=538 nm). Inhibition constants (IC50) may be calculated by non-linear curve fitting of the compound concentrations and fluorescence intensities to the standard IC50 equation.
Solutions of test compounds in varying concentrations (≦2 mM final concentration) are prepared in dimethyl sulfoxide (DMSO) and then diluted into assay buffer comprising 50 mM Hepes, 1 mM EDTA, 1 mM DTT, 0.1 mg/ml BSA, 0.01% Brij35, pH 7.4. Alternatively, the assay can be performed with a high BSA concentration, wherein the buffer contains an additional 2% BSA.
Recombinant human renin (3 nM final concentration) is added to the dilutions and pre-incubated with the compounds for 10 minutes at 37° C. As described in Examples A-C above, human renin can be obtained by expressing preprorenin (residue 1-406) in mammalian cells, treating the prorenin (residues 24-406) contained in the culture supernatant with trypsin, and isolate the active form (residues 67-406). After pre-incubation, the reaction is initiated with 1 μM of substrate QXL520-γ-Abu-Ile-His-Pro-Phe-His-Leu-Val-Ile-His-Thr-Lys (HiLyteFluo488)-Arg-OH (Anaspec, San Jose, Calif.). The final DMSO in the assay is 5%. The total volume of the reaction mixture is 20 μL, which can be placed on Greiner 384-well small volume plates.
Renin activity may be determined via fluorescence (excitation λ=485 nm; emission λ=538 nm), e.g., on a Molecular Devices SPECTROmax GEMINI XPS. The fluorescence intensity is determined upon the addition of substrate and determined again after incubation at 37° C. for one hour. The fluorescence intensity of a blank (no inhibition) using vehicle alone is also determined. Renin activity is linearly proportional to the change in fluorescence observed (final—initial).
The percent inhibition of renin at a given compound concentration is defined as: 100%×[1−(Fcompound/Fblank)] where Fcompound is the observed fluorescence at a given concentration of test compound and Fblank is the observed fluorescence in the presence of vehicle alone.
The pIC50 value (negative log of the molar concentration of the compound that produces 50% inhibition) of a test compound is calculated by non-linear least squares curve fitting of the equation: Percent Inhibition=100%/(1+(10−pIC50/10 log [I])) to percent inhibition versus compound concentration. The 50% inhibitory concentration (IC50) of a test compound is calculated by raising 10 to the negative pIC50 (10-pIC50).

[2] = target: Human DPP-IV (Homo sapiens, UniProt P27487); test: in vitro enzymatic activity of inhibitors against DPP-IV; assay type: biochemical; details: AP-AFC substrate
Procedure: Solutions of test compounds in varying concentrations ([…]) were prepared in dimethyl sulfoxide (DMSO) and then diluted into assay buffer comprising: 20 mM Tris, pH 7.4; 20 mM KCl; and 0.1 mg/mL BSA. Human DPP-IV (0.1 nM final concentration) was added to the dilutions and pre-incubated for 10 minutes at ambient temperature before the reaction was initiated with A-P-7-amido-4-trifluoromethylcoumarin (AP-AFC; 10 μM final concentration). The total volume of the reaction mixture was 10-100 μL depending on assay formats used (384 or 96 well plates). The reaction was followed kinetically (excitation λ=400 nm; emission λ=505 nm) for 5-10 minutes or an end-point was measured after 10 minutes. Inhibition constants (IC50) were calculated from the enzyme progress curves using standard mathematical models.

Sequence of Human DPP-IV (P27487 whole entry): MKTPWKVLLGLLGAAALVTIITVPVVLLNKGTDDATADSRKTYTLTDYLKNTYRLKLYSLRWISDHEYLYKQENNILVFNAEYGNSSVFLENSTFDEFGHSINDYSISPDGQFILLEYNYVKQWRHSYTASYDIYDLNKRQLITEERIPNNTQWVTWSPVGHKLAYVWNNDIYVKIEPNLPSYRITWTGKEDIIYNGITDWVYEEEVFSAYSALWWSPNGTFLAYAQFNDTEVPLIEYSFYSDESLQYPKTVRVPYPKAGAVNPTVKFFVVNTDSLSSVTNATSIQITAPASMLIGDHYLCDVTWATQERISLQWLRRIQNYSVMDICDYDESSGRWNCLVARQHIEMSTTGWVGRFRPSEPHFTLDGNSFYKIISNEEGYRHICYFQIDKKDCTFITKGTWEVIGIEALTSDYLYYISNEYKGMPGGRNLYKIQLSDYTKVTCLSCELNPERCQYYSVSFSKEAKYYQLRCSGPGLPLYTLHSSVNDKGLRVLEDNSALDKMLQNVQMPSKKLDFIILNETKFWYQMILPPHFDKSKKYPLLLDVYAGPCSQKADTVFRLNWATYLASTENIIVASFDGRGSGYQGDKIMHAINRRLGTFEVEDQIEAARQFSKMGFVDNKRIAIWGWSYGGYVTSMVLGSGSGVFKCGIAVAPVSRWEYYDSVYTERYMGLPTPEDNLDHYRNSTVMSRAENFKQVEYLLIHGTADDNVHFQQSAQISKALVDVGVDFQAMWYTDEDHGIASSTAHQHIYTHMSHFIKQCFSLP

Compound	IC50 [1] [µM]	IC50 [2] [µM]
CC(C)COc1ccccc1-c1c(CN)c(NCc2ccc3ccccc3c2)nc2c1c(=O)n(C)c(=O)n2C [Compound 77, 6-(aminomethyl)-5-(2-isobutoxyphenyl)-1,3-dimethyl-7-(naphthalen-2-ylmethylamino)pyrido[2,3-d]pyrimidine-2,4(1H,3H)-dione]	1 to 10	> 100
COc1ccc(F)cc1-c1c(CN)c(NCc2cccc(OCC(C)C)c2)nc2c1c(=O)n(C)c(=O)n2C [Compound 83, 6-(aminomethyl)-5-(5-fluoro-2-methoxyphenyl)-7-(3-isobutoxybenzylamino)-1,3-dimethylpyrido[2,3-d]pyrimidine-2,4(1H,3H)-dione]	1 to 10	< 1
CCCOc1ccc(OCCC)c(CNc2nc3c(c(-c4ccc(Cl)cc4Cl)c2CN)c(=O)n(C)c(=O)n3C)c1 [Compound 84, 6-(aminomethyl)-5-(2,4-dichlorophenyl)-7-(2,5-dipropoxybenzylamino)-1,3-dimethylpyrido[2,3-d]pyrimidine-2,4(1H,3H)-dione]	> 100	1 to 10
CCNCc1c(NCc2ccc3ccccc3c2)nc2c(c1-c1cc(OC)cc(OC)c1)c(=O)n(C)c(=O)n2C [Compound 86, 5-(3,5-dimethoxyphenyl)-6-((ethylamino)methyl)-1,3-dimethyl-7-(naphthalen-2-ylmethylamino)pyrido[2,3-d]pyrimidine-2,4(1H,3H)-dione]	10 to 100	> 100
CC(C)COc1ccc(Cl)cc1-c1c(CN)c(NCc2ccc3ccccc3c2)nc2c1c(=O)n(C)c(=O)n2C [Compound 88, 6-(Aminomethyl)-5-(5-chloro-2-isobutoxyphenyl)-1,3-dimethyl-7-(naphthalen-2-ylmethylamino)pyrido[2,3-d]pyrimidine-2,4(1H,3H)-dione]	1 to 10	1 to 10
Cn1c(=O)c2c(-c3cc(F)ccc3Br)c(CN)c(NC(Cc3ccccc3)c3ccccc3)nc2n(C)c1=O (stereo not shown) [Compound 91, 6-(Aminomethyl)-5-(2-bromo-5-fluorophenyl)-7-(1,2-diphenylethylamino)-1,3-dimethylpyrido[2,3-d]pyrimidine-2,4(1H,3H)-dione]	1 to 10	< 1
COc1ccc(F)cc1-c1c(CN)c(NCCc2ccccc2)nc2c1c(=O)n(C)c(=O)n2C [Compound 93, 6-(Aminomethyl)-5-(5-fluoro-2-methoxyphenyl)-1,3-dimethyl-7-(phenethylamino)pyrido[2,3-d]pyrimidine-2,4(1H,3H)-dione]	10 to 100	< 1

Now from value to compound:

IC50 [1] [µM]	IC50 [2] [µM]	Compound
1 to 10	10 to 100	Cn1c(=O)c2c(-c3cccc(OCc4cncs4)c3)c(CN)c(NCc3ccc4ccccc4c3)nc2n(C)c1=O [Compound 79, 6-(aminomethyl)-1,3-dimethyl-7-(naphthalen-2-ylmethylamino)-5-(3-(thiazol-5-ylmethoxy)phenyl)pyrido[2,3-d]pyrimidine-2,4(1H,3H)-dione]
1 to 10	10 to 100	Cn1c(=O)c2c(-c3cccc(O)c3)c(CN)c(NCc3ccc4ccccc4c3)nc2n(C)c1=O [Compound 80, 6-(aminomethyl)-5-(3-hydroxyphenyl)-1,3-dimethyl-7-(naphthalen-2-ylmethylamino)pyrido[2,3-d]pyrimidine-2,4(1H,3H)-dione]
1 to 10	< 1	COc1ccc(F)cc1-c1c(CN)c(NCc2cccc(OCc3ccccc3)c2)nc2c1c(=O)n(C)c(=O)n2C [Compound 82, 6-(aminomethyl)-7-(3-(benzyloxy)benzylamino)-5-(5-fluoro-2-methoxyphenyl)-1,3-dimethylpyrido[2,3-d]pyrimidine-2,4(1H,3H)-dione]
1 to 10	> 100	COc1cc(OC)cc(-c2c(CN)c(NCc3cccc(-n4cccc4)c3)nc3c2c(=O)n(C)c(=O)n3C)c1 [Compound 85, 7-(3-(1H-pyrrol-1-yl)benzylamino)-6-(aminomethyl)-5-(3,5-dimethoxyphenyl)-1,3-dimethylpyrido[2,3-d]pyrimidine-2,4(1H,3H)-dione]
1 to 10	< 1	COc1ccc(F)cc1-c1c(CN)c(NCc2ccccc2C(F)(F)F)nc2c1c(=O)n(C)c(=O)n2C [Compound 87, 6-(Aminomethyl)-5-(5-fluoro-2-methoxyphenyl)-1,3-dimethyl-7-(2-(trifluoromethyl)benzylamino)pyrido[2,3-d]pyrimidine-2,4(1H,3H)-dione]
1 to 10	10 to 100	Cn1c(=O)c2c(-c3cccc(OCc4cnc(Cl)s4)c3)c(CN)c(NCc3ccc4ccccc4c3)nc2n(C)c1=O [Compound 89, 6-(Aminomethyl)-5-(3-((2-chlorothiazol-5-yl)methoxy)phenyl)-1,3-dimethyl-7-(naphthalen-2-ylmethylamino)pyrido[2,3-d]pyrimidine-2,4(1H,3H)-dione]
1 to 10	1 to 10	Cn1c(=O)c2c(-c3cccc(F)c3)c(CN)c(NCc3ccc4ccccc4c3)nc2n(C)c1=O [Compound 90, 6-(Aminomethyl)-5-(3-fluorophenyl)-1,3-dimethyl-7-(naphthalen-2-ylmethylamino)pyrido[2,3-d]pyrimidine-2,4(1H,3H)-dione]
